Biological target: T1, human TLR9 (Homo sapiens, UniProt Q9NR96)
T1 sequence (Q9NR96 26-1032): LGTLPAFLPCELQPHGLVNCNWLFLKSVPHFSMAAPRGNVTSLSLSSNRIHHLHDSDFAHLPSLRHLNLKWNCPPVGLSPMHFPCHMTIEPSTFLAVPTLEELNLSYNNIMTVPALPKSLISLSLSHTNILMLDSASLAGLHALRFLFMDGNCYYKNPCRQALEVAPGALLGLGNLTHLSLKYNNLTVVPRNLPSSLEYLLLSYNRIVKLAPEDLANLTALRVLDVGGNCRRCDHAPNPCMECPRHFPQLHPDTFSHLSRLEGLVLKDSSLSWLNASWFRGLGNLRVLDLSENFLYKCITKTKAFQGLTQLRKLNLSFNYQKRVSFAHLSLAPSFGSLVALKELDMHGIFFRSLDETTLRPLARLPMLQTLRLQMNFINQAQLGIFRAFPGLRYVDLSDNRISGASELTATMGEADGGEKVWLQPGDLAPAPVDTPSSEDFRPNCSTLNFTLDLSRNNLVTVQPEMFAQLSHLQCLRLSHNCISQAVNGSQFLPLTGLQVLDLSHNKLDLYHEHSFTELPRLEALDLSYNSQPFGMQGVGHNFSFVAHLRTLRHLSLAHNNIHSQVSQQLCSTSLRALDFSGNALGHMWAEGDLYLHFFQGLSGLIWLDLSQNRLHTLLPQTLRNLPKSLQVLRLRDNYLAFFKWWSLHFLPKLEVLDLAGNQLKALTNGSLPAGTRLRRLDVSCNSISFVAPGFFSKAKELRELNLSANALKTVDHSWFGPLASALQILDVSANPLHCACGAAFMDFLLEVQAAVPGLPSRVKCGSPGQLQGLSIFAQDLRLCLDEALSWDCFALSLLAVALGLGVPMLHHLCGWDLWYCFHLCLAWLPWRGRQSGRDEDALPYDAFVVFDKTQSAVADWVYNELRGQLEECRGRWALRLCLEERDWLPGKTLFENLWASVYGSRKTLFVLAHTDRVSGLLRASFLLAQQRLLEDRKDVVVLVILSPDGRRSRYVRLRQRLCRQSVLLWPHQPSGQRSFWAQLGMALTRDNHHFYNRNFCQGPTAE
Experiment: HEK293-Blue-hTLR-9 cells assay (SEAP reporter, ODN2006 stimulation)
Type: cell-based
Settings: HEK293-Blue-hTLR9 cells, ODN2006 ligand, 20 hrs incubation
Experimental: The following tests were carried out in order to determine the activity of the compounds of formula (I) in HEK293-Blue-hTLR-7/8/9 cells assay.
HEK293-Blue-hTLR-9 Cells Assay:
A stable HEK293-Blue-hTLR-9 cell line was purchased from InvivoGen (Cat. #: hkb-htlr9, San Diego, Calif., USA). These cells were originally designed for studying the stimulation of human TLR9 by monitoring the activation of NF-κB. A SEAP (secreted embryonic alkaline phosphatase) reporter gene was placed under the control of the IFN-β minimal promoter fused to five NF-κB and AP-1-binding sites. The SEAP was induced by activating NF-κB and AP-1 via stimulating HEK-Blue hTLR9 cells with TLR9 ligands. Therefore the reporter expression was declined by TLR9 antagonist under the stimulation of a ligand, such as ODN2006 (Cat. #: tlrl-2006-1, Invivogen, San Diego, Calif., USA), for incubation of 20 hrs. The cell culture supernatant SEAP reporter activity was determined using QUANTI-Blue™ kit (Cat. #: rep-qb1, Invivogen, San Diego, Calif., USA) at a wavelength of 640 nm, a detection medium that turns purple or blue in the presence of alkaline phosphatase.
HEK293-Blue-hTLR9 cells were incubated at a density of 250,000˜450,000 cells/mL in a volume of 170 μL in a 96-well plate in Dulbecco's Modified Eagle's medium (DMEM) containing 4.5 g/L glucose, 50 U/mL penicillin, […], […], 2 mM L-glutamine, 10% (v/v) heat-inactivated fetal bovine serum with addition of 20 μL test compound in a serial dilution in the presence of final DMSO at 1% and 10 μL of 20 uM ODN2006 in above DMEM, perform incubation under 37° C. in a CO2incubator for 20 hrs. Then 20 μL of the superatant from each well was incubated with 180 μL Quanti-blue substrate solution at 37° C. for 2 hrs and the absorbance was read at 620˜655 nm using a spectrophotometer. The signalling pathway that TLR9 activation leads to downstream NF-κB activation has been widely accepted, and therefore similar reporter assay was modified for evaluating TLR9 antagonist.

SMILES | IC50
N#Cc1ccc(N2C[C@H](CN3CCC(N)CC3)[C@@H](C(F)(F)F)C2)c2nccnc12 [Example 51, 8-[(3S,4R)-3-[(4-amino-1-piperidyl)methyl]-4-(trifluoromethyl)pyrrolidin-1-yl]quinoxaline-5-carbonitrile] | 359 nM
N#Cc1ccc(N2C[C@H](CN3CCC(N4CCNCC4)CC3)[C@@H](C(F)(F)F)C2)c2cccnc12 [Example 52, 5-[(3S,4R)-3-[(4-piperazin-1-yl-1-piperidyl)methyl]-4-(trifluoromethyl)pyrrolidin-1-yl]quinoline-8-carbonitrile] | 208 nM
N#Cc1ccc(N2C[C@H](CN3CC4(CC(N)C4)C3)[C@@H](C(F)(F)F)C2)c2cccnc12 [Example 53, 5-[(3S,4R)-3-[(6-Amino-2-azaspiro[3.3]heptan-2-yl)methyl]-4-(trifluoromethyl)pyrrolidin-1-yl]quinoline-8-carbonitrile] | 219 nM
N#Cc1ccc(N2C[C@H](CN3CCC4(CCNC4)CC3)[C@@H](C(F)(F)F)C2)c2cccnc12 [Example 54, 5-[(3S,4R)-3-(2,8-Diazaspiro[4.5]decan-8-ylmethyl)-4-(trifluoromethyl)pyrrolidin-1-yl]quinoline-8-carbonitrile] | 152 nM
N#Cc1ccc(N2C[C@H](CN3CCC4(CCCNC4)CC3)[C@@H](C(F)(F)F)C2)c2cccnc12 [Example 55, 5-[(3S,4R)-3-(2,9-Diazaspiro[5.5]undecan-9-ylmethyl)-4-(trifluoromethyl)pyrrolidin-1-yl]quinoline-8-carbonitrile] | 173 nM
N#Cc1ccc(N2C[C@H](CN3CCC4(CCNCC4)C3)[C@@H](C(F)(F)F)C2)c2cccnc12 [Example 56, 5-[(3S,4R)-3-(2,8-Diazaspiro[4.5]decan-2-ylmethyl)-4-(trifluoromethyl)pyrrolidin-1-yl]quinoline-8-carbonitrile] | 159 nM
N#Cc1ccc(N2C[C@H](CN3CCCC4(CCNCC4)C3)[C@@H](C(F)(F)F)C2)c2cccnc12 [Example 57, 5-[(3S,4R)-3-(2,9-Diazaspiro[5.5]undecan-2-ylmethyl)-4-(trifluoromethyl)pyrrolidin-1-yl]quinoline-8-carbonitrile] | 331 nM
N#Cc1ccc(N2CC(CN3CCC(N4CCOCC4)CC3)C3(CC3)C2)c2nccnc12 (stereo not drawn) [Example 58, 8-[7-[(4-Morpholino-1-piperidyl)methyl]-5-azaspiro[2.4]heptan-5-yl]quinoxaline-5-carbonitrile] | 605 nM
N#Cc1ccc(N2C[C@H](CN3CCNCC3)[C@@H](C(F)(F)F)C2)c2nccnc12 [Example 59, 8-[(3S,4R)-3-(Piperazin-1-ylmethyl)-4-(trifluoromethyl)pyrrolidin-1-yl]quinoxaline-5-carbonitrile] | 2700 nM
N#Cc1ccc(N2C[C@H](CN3CCC(N4CCCC4)CC3)[C@@H](C(F)(F)F)C2)c2nccnc12 [Example 60, 8-[(3S,4R)-3-[(4-Pyrrolidin-1-yl-1-piperidyl)methyl]-4-(trifluoromethyl)pyrrolidin-1-yl]quinoxaline-5-carbonitrile] | 509 nM
N#Cc1ccc(N2C[C@H](CN3CCC(N4CCCCC4)CC3)[C@@H](C(F)(F)F)C2)c2nccnc12 [Example 61, 8-[(3S,4R)-3-[[4-(1-Piperidyl)-1-piperidyl]methyl]-4-(trifluoromethyl)pyrrolidin-1-yl]quinoxaline-5-carbonitrile] | 438 nM
N#Cc1ccc(N2C[C@H](CN3CCC(N4CCCCCC4)CC3)[C@@H](C(F)(F)F)C2)c2nccnc12 [Example 62, 8-[(3S,4R)-3-[[4-(Azepan-1-yl)-1-piperidyl]methyl]-4-(trifluoromethyl)pyrrolidin-1-yl]quinoxaline-5-carbonitrile] | 409 nM
N#Cc1ccc(N2C[C@H](CN3C4CCC3CC(N)C4)[C@@H](C(F)(F)F)C2)c2nccnc12 (stereo partly drawn) [Example 63, 8-[(3S,4R)-3-[(3-amino-8-azabicyclo[3.2.1]octan-8-yl)methyl]-4-(trifluoromethyl)pyrrolidin-1-yl]quinoxaline-5-carbonitrile] | 294 nM
N#Cc1ccc(N2C[C@H](CN3CCC(N)C(F)(F)C3)[C@@H](C(F)(F)F)C2)c2nccnc12 (stereo partly drawn) [Example 64, 8-[(3S,4R)-3-[(4-amino-3,3-difluoro-1-piperidyl)methyl]-4-(trifluoromethyl)pyrrolidin-1-yl]quinoxaline-5-carbonitrile] | 23100 nM
N#Cc1ccc(N2CC(CN3CCC4(CCCCN4)CC3)C3(CC3)C2)c2nccnc12 (stereo not drawn) [Example 65, 8-[7-(1,9-Diazaspiro[5.5]undecan-9-ylmethyl)-5-azaspiro[2.4]heptan-5-yl]quinoxaline-5-carbonitrile] | 68 nM
N#Cc1ccc(N2CC(CN3CCC4NCC4C3)C3(CC3)C2)c2nccnc12 (stereo not drawn) [Example 66, 8-[7-(3,7-Diazabicyclo[4.2.0]octan-3-ylmethyl)-5-azaspiro[2.4]heptan-5-yl]quinoxaline-5-carbonitrile] | 123 nM
N#Cc1ccc(N2CC(CN3CCOC4(CCNCC4)C3)C3(CC3)C2)c2nccnc12 (stereo not drawn) [Example 67, 8-[7-(1-Oxa-4,9-diazaspiro[5.5]undecan-4-ylmethyl)-5-azaspiro[2.4]heptan-5-yl]quinoxaline-5-carbonitrile] | 869 nM
N#Cc1ccc(N2CC(CN3CCC(N)CC3)C3(CC3)C2)c2nccnc12 (stereo not drawn) [Example 68, 8-[7-[(4-Amino-1-piperidyl)methyl]-5-azaspiro[2.4]heptan-5-yl]quinoxaline-5-carbonitrile] | 93 nM
N#Cc1ccc(N2C[C@H](CN3CCCC(C(N)=O)C3)[C@@H](C(F)(F)F)C2)c2nccnc12 (stereo partly drawn) [Example 69, 1-[[(3S,4R)-1-(S-cyanoquinoxalin-5-yl)-4-(trifluoromethyl)pyrrolidin-3-yl]methyl]piperidine-3-carboxamide] | 15700 nM
N#Cc1ccc(N2C[C@H](CN3CCC4(CC3)CNCCO4)[C@@H](C(F)(F)F)C2)c2nccnc12 [Example 70, 8-[(3S,4R)-3-(1-oxa-4,9-diazaspiro[5.5]undecan-9-ylmethyl)-4-(trifluoromethyl)pyrrolidin-1-yl]quinoxaline-5-carbonitrile] | 253 nM
N#Cc1ccc(N2C[C@H](CNC3CCNCC3)[C@@H](C(F)(F)F)C2)c2nccnc12 [Example 71, 8-[(3S,4R)-3-[(4-piperidylamino)methyl]-4-(trifluoromethyl)pyrrolidin-1-yl]quinoxaline-5-carbonitrile] | 87 nM
C[C@H]1CN(C[C@H]2CN(c3ccc(C#N)c4nccnc34)C[C@@H]2C(F)(F)F)CC[C@H]1N [Example 72, 8-[(3S,4R)-3-[[(3S,4R)-4-amino-3-methyl-1-piperidyl]methyl]-4-(trifluoromethyl)pyrrolidin-1-yl]quinoxaline-5-carbonitrile] | 506 nM
N#Cc1ccc(N2C[C@H](CN3CC4CCC(C3)C4N)[C@@H](C(F)(F)F)C2)c2nccnc12 (stereo partly drawn) [Example 73, 8-[(3S,4R)-3-[(8-amino-3-azabicyclo[3.2.1]octan-3-yl)methyl]-4-(trifluoromethyl)pyrrolidin-1-yl]quinoxaline-5-carbonitrile] | 1190 nM
N#Cc1ccc(N2C[C@H](CN3CCC(CN)CC3)[C@@H](C(F)(F)F)C2)c2nccnc12 [Example 74, 8-[(3S,4R)-3-[[4-(aminomethyl)-1-piperidyl]methyl]-4-(trifluoromethyl)pyrrolidin-1-yl]quinoxaline-5-carbonitrile] | 325 nM

Source: US20210253575A1, “PYRROLIDINE AMINE COMPOUNDS FOR THE TREATMENT OF AUTOIMMUNE DISEASE” (Hoffmann-La Roche Inc., priority 2018, published 2021)
